The target of this test is T1, human KSP motor domain (KSP(367H)) (Homo sapiens, UniProt P52732).
T1 construct: were used to amplify the motor domain and the neck linker region; made in house; host or cells: E. coli BL21 (DE3)
T1 sequence (P52732 18-359 limits assumed): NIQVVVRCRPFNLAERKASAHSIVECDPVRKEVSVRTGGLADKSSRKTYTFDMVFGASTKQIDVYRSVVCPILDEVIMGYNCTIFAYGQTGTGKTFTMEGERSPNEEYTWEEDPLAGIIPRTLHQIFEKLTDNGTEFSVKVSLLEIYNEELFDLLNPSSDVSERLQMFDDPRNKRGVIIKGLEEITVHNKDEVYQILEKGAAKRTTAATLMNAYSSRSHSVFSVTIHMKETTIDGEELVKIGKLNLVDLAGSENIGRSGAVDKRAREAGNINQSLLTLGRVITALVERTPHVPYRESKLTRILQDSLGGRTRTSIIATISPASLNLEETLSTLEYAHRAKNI
In words: Kinesin ATPase In Vitro Assay. To be noted: human poly-histidine tagged KSP motor domain with microtubules, 1 mM ATP, 23° C. In kind it is biochemical. The text has this:
I. Kinesin ATPase In Vitro Assay
Cloning and Expression of Human Poly-Histidine Tagged KSP Motor Domain_(KSP(367H))
Plasmids for the expression of the human KSP motor domain construct were cloned by PCR using a pBluescript full length human KSP construct (Blangy et al., Cell, vol. 83, pp 1159-1169, 1995) as a template. The N-terminal primer 5′-[…] (SEQ.ID.NO.: 1) and the C-terminal primer 5′-[…] […]lCAGGCTTATTCAATAT (SEQ.D.NO.: 2) were used to amplify the motor domain and the neck linker region. The PCR products were digested with AseI and XhoI, ligated into the NdeI/XhoI digestion product of pRSETa (Invitrogen) and transformed into E. coli BL21 (DE3).
Cells were grown at 37° C. to an OD600 of 0.5. […]
The kinesin motor domain is incubated with microtubules, 1 mM ATP (1:1 MgCl2: Na-ATP), and compound at 23° C. in buffer containing 80 mM K-HEPES (pH 7.0), 1 mM EGTA, 1 mM DTT, 1 mM MgCl2, and 50 mM KCl. […] Free phosphate from the ATP hydrolysis reaction is measured via a quinaldine redlammonium molybdate assay by adding a […] volume of quench C (e.g., to a mixture of 40 μl reaction volume+40 μl stop buffer is then added 120 μl quench C). […] Quench C is a 2:1 ratio of quench A:quench B The reaction is incubated for 5-10 minutes at 23° C., and the absorbance of the phospho-molybdate complex is measured at 540 nm.

Bounds are passed on as bounds.

Regarding `O=C1CC[C@@H]2CC(c3cc(F)ccc3F)=C[C@@H](c3ccccc3)N12` [1-5, (−)-(5S,8aR)-7-(2,5-difluorophenyl)-5-phenyl-1,5,8,8a-tetrahydroindolizin-3(2H)-one], the IC50 is no more than 50 µM.
Then `O=C1CC[C@@H]2C=C(c3cc(F)ccc3F)C[C@@H](c3ccccc3)N12` [1-6, (+)-(5S,8aR)-7-(2,5-difluorophenyl)-5-phenyl-1,5,6,8a-tetrahydroindolizin-3(2H)-one], with no more than 50 µM.

In general, IC50 refers to the point on the concentration scale where inhibition reaches its midpoint. Read a high IC50 as a need for much substance.

The values are drawn from US7307085B2, “Mitotic kinesin inhibitors” (Merck & Co., Inc., priority 2003, dated 2007).
